From doi:10.1101/2023.08.21.552681v1 (biorxiv, 2023)

Target: T1, ctdWDR91 (Homo sapiens, UniProt A4D1P6)
T1 sequence (A4D1P6 392-747): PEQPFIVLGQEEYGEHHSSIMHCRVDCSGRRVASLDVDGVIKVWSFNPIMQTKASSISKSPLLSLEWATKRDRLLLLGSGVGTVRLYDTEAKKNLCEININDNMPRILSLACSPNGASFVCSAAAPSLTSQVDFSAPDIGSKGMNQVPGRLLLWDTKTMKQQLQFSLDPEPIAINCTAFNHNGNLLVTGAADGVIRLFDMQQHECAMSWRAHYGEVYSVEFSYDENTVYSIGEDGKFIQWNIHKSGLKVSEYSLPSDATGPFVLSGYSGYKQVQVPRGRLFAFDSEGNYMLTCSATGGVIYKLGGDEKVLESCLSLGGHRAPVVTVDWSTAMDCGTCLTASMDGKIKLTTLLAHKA
Test: biochemical

Point of comparison: `CC(NC(=O)c1ccc2c(c1)NC(=O)CO2)c1cccc(Cl)c1` (centres unmarked) [MRGG044791a], Kd 36 µM. Against it:
- O=C(c1ccccc1)N1CCC(CN(C2CC2)C2CC2)C1 (centres unmarked) [MRGG045320a] — higher, > 45 µM
- Cc1cc(OCc2ccccc2)nc(N(C)C2CCN(C3CC3)C2)n1 (centres unmarked) [MRGG045325a] — higher, > 45 µM
- CCN(CC(=O)NCc1cc(Cl)c(Cl)cc1Cl)C1CC1 [MRGG045269a] — higher, > 45 µM
- O=C(Cc1ccc(O)c(O)c1)NC(CC1CC1)c1ccc(Cl)cc1 (centres unmarked) [MRGG045306a] — higher, > 45 µM
- Cc1cc(N2CCN(C(=O)c3cc(F)c(F)cc3[N+](=O)[O-])CC2)c(F)cc1[N+](=O)[O-] [MRGG044777a] — higher, > 45 µM
- Cc1cc(C#N)nc(NC2CC(C)N(C3CC3)C2)n1 (centres unmarked) [MRGG044798a] — higher, > 45 µM
- O=C(Cc1cn2ccsc2n1)NC1(c2ccc(Cl)cc2)CC1 [MRGG044790a] — higher, > 45 µM
- NC12CCCC1CN(C(=O)c1nccc3cccnc13)C2 (centres unmarked) [MRGG044815a] — higher, > 45 µM
- O=C(Nc1cccc2cnccc12)c1cccc([N+](=O)[O-])c1 [MRGG044720b] — higher, > 45 µM
- O=C(c1snc(O)c1Cl)N1CCC2(CCc3ccccc3O2)C1 (centres unmarked) [MRGG044808a] — higher, > 45 µM
- CN1CC(N(C)C(=O)c2cc(-n3cccc3)ccn2)C1 [MRGG045326a] — higher, > 45 µM
- c1ccc(CN2CCC3(CCN(C4CC4)C3)C2)cc1 (centres unmarked) [MRGG045337a] — higher, > 45 µM
- CN(CCc1ccccc1)C(=O)Cc1ccc(O)c(O)c1 [UBGG028860b] — higher, > 45 µM
- COc1ccc(CC(=O)N(C)Cc2cccc(N3CCCC3)c2)cc1[N+](=O)[O-] [MRGG045329a] — higher, > 45 µM
- CN1C[C@@H]2CN(C(=O)c3cc(Br)c([N+](=O)[O-])[nH]3)C[C@@H]2C1 [MRGG045266a] — higher, > 45 µM
- COc1cccc(N2CCC(CNC(=O)c3cccc(F)c3)C2)c1 (centres unmarked) [MRGG044811a] — higher, > 45 µM
- O=C(NCC1CCN(C2CC2)C1)c1ccc(Cl)cc1 (centres unmarked) [MRGG044816a] — higher, > 45 µM
- Cc1cc2ccccc2n1CC(=O)Nc1cc(C(N)=O)ccc1N1CCCC1 [MRGG044789a] — higher, > 45 µM
- O=C1CC(c2nccs2)NC(=O)N1CC1CCN(c2ccc(Cl)cc2)C1 (centres unmarked) [MRGG045332a] — higher, > 45 µM
- O=C1NCC2(CC2)C(=O)N1CC1CCN(c2cccc(Br)c2)C1 (centres unmarked) [MRGG045328a] — higher, > 45 µM
- CC1(CNC2CCN(C3CC3)C2)CCN(C(=O)OC(C)(C)C)C1 (centres unmarked) [MRGG045285a] — higher, > 45 µM
- O=C1Cc2ccc(C(=O)NC3Cc4ccccc4C3O)cc2N1 (centres unmarked) [MRGG044800a] — higher, > 45 µM
- CN(CCCc1ccccc1)C(=O)c1cn2ccnc2s1 [MRGG045270a] — higher, > 45 µM
- CN1CCOC(C(NC(=O)c2cncc3cnccc23)c2ccc(Cl)cc2)C1 (centres unmarked) [MRGG045276a] — higher, > 45 µM
- Cc1ccc(N)cc1C(=O)N1C2C=C(c3ccccc3)CC1CC2 (centres unmarked) [MRGG044818aAD] — higher, > 45 µM
- CC(C)(C)OC(=O)N1CCCC1C1CCN(C2CC2)C1 (centres unmarked) [MRGG045334a] — higher, > 45 µM
- O=C(NCc1ccc(N2CCCC2)cc1)c1ccc(F)cc1 [XSGG119722b] — higher, > 45 µM
- Cc1nc(N(C)C)sc1CCNc1cc(C(F)(F)F)cc(C#N)n1 [MRGG044814a] — higher, > 45 µM
- CNC(=O)c1cc(C)nc(N2CCC3(CC2)CN(C)c2ccccc23)n1 [MRGG045287a] — higher, > 45 µM
- N#Cc1cccc2c1CCN(C(=O)NCC1CCN(c3ccc(Cl)cc3)C1)C2 (centres unmarked) [MRGG045297a] — higher, > 45 µM
- CC(NC(=O)CN(C)C1CCN(C2CC2)C1)c1ccc(Br)cc1 (centres unmarked) [MRGG045280a] — higher, > 45 µM
- c1ccc2c(c1)OCCCC2NC1CCN(C2CC2)C1 (centres unmarked) [MRGG044835a] — higher, > 45 µM
- CN1CCC(O)(CNC(=O)c2cnc3cc[nH]c3c2)C1 (centres unmarked) [MRGG045295a] — higher, > 45 µM
- CC(C)(C)OC(=O)NCc1ccc(C(=O)NC2CCN(c3ccc(Cl)cc3)C2)cc1 (centres unmarked) [MRGG045288a] — higher, > 45 µM
- N#Cc1cccc(CNC(=O)C2=NN(c3ccccc3)C(=O)CN2)c1 [MRGG044820a] — higher, > 45 µM
- Cc1[nH]c2ccccc2c1CC(=O)N(C)C1CCN(C2CC2)C1 (centres unmarked) [MRGG045290a] — higher, > 45 µM
- O=C(NC(CO)C(O)c1ccc(Cl)cc1)c1ccc2ccncc2c1 (centres unmarked) [MRGG045273a] — higher, > 45 µM
